ChEMBL document CHEMBL3217532, “New analyses of MIC90 data to aid antibacterial drug discovery” (2011)
Values after ≈ are worked out from the molar mass of the structure shown.

Columns and labels:
Format in all cases: functional
[1] = system: Pseudomonas aeruginosa; test: Antimicrobial activity against Pseudomonas aeruginosa 1951-00
[2] = system: Pseudomonas aeruginosa; test: Antimicrobial activity against Pseudomonas aeruginosa PA-4997
[3] = system: Pseudomonas aeruginosa; test: Antimicrobial activity against Pseudomonas aeruginosa 1612-09
[4] = system: Pseudomonas aeruginosa; test: Antimicrobial activity against Pseudomonas aeruginosa 1766-00
[5] = system: Pseudomonas aeruginosa; test: Antimicrobial activity against Pseudomonas aeruginosa 1953-00
[6] = system: Pseudomonas aeruginosa; test: Antimicrobial activity against Pseudomonas aeruginosa 1514-08
[7] = system: Pseudomonas aeruginosa; test: Antimicrobial activity against Pseudomonas aeruginosa 1767-00
[8] = system: Pseudomonas aeruginosa; test: Antimicrobial activity against Pseudomonas aeruginosa 1954-00
[9] = system: Pseudomonas aeruginosa; test: Antimicrobial activity against Pseudomonas aeruginosa 1760-00
[10] = system: Pseudomonas aeruginosa; test: Antimicrobial activity against Pseudomonas aeruginosa 1515-08
[11] = system: Pseudomonas aeruginosa; test: Antimicrobial activity against Pseudomonas aeruginosa 1615-09
[12] = system: Pseudomonas aeruginosa; test: Antimicrobial activity against Pseudomonas aeruginosa 1614-09
[13] = system: Pseudomonas aeruginosa; test: Antimicrobial activity against Pseudomonas aeruginosa 1764-00
[14] = system: Pseudomonas aeruginosa; test: Antimicrobial activity against Pseudomonas aeruginosa 1567-05
[15] = system: Pseudomonas aeruginosa; test: Antimicrobial activity against Pseudomonas aeruginosa 1523-08
[16] = system: Pseudomonas aeruginosa; test: Antimicrobial activity against Pseudomonas aeruginosa 1510-08
[17] = system: Pseudomonas aeruginosa; test: Antimicrobial activity against Pseudomonas aeruginosa PA-4993
[18] = system: Pseudomonas aeruginosa; test: Antimicrobial activity against Pseudomonas aeruginosa 1568-05
[19] = system: Pseudomonas aeruginosa; test: Antimicrobial activity against Pseudomonas aeruginosa 1562-05
[20] = system: Pseudomonas aeruginosa; test: Antimicrobial activity against Pseudomonas aeruginosa 1955-00
[21] = system: Pseudomonas aeruginosa; test: Antimicrobial activity against Pseudomonas aeruginosa 1570-05
[22] = system: Pseudomonas aeruginosa; test: Antimicrobial activity against Pseudomonas aeruginosa 1956-00
[23] = system: Pseudomonas aeruginosa; test: Antimicrobial activity against Pseudomonas aeruginosa 1765-00
[24] = system: Pseudomonas aeruginosa; test: Antimicrobial activity against Pseudomonas aeruginosa PA-1757
[25] = system: Pseudomonas aeruginosa; test: Antimicrobial activity against Pseudomonas aeruginosa 1564-05
[26] = system: Pseudomonas aeruginosa; test: Antimicrobial activity against Pseudomonas aeruginosa PA-4995
[27] = system: Pseudomonas aeruginosa; test: Antimicrobial activity against Pseudomonas aeruginosa 1753-00
[28] = system: Pseudomonas aeruginosa; test: Antimicrobial activity against Pseudomonas aeruginosa PA-75
[29] = system: Pseudomonas aeruginosa; test: Antimicrobial activity against Pseudomonas aeruginosa 1509-08
[30] = system: Pseudomonas aeruginosa; test: Antimicrobial activity against Pseudomonas aeruginosa 1521-08
[31] = system: Pseudomonas aeruginosa; test: Antimicrobial activity against Pseudomonas aeruginosa 1752-00
[32] = system: Pseudomonas aeruginosa; test: Antimicrobial activity against Pseudomonas aeruginosa 1952-00
[33] = system: Pseudomonas aeruginosa; test: Antimicrobial activity against Pseudomonas aeruginosa 1563-00
[34] = system: Pseudomonas aeruginosa; test: Antimicrobial activity against Pseudomonas aeruginosa 1565-05
[35] = system: Pseudomonas aeruginosa; test: Antimicrobial activity against Pseudomonas aeruginosa 1561-05
[36] = system: Pseudomonas aeruginosa; test: Antimicrobial activity against Pseudomonas aeruginosa 1512-08
[37] = system: Pseudomonas aeruginosa; test: Antimicrobial activity against Pseudomonas aeruginosa PA-4991
[38] = system: Pseudomonas aeruginosa; test: Antimicrobial activity against Pseudomonas aeruginosa 1526-08
[39] = system: Pseudomonas aeruginosa; test: Antimicrobial activity against Pseudomonas aeruginosa PA-4990
[40] = system: Pseudomonas aeruginosa; test: Antimicrobial activity against Pseudomonas aeruginosa 1611-09
[41] = system: Pseudomonas aeruginosa; test: Antimicrobial activity against Pseudomonas aeruginosa 1761-00
[42] = system: Pseudomonas aeruginosa; test: Antimicrobial activity against Pseudomonas aeruginosa PA-4999
[43] = system: Pseudomonas aeruginosa; test: Antimicrobial activity against Pseudomonas aeruginosa 1569-05
[44] = system: Pseudomonas aeruginosa; test: Antimicrobial activity against Pseudomonas aeruginosa 1527-08
[45] = system: Pseudomonas aeruginosa; test: Antimicrobial activity against Pseudomonas aeruginosa 1566-05
[46] = system: Pseudomonas aeruginosa; test: Antimicrobial activity against Pseudomonas aeruginosa 1619-08
[47] = system: Pseudomonas aeruginosa; test: Antimicrobial activity against Pseudomonas aeruginosa PA-4624
[48] = system: Pseudomonas aeruginosa; test: Antimicrobial activity against Pseudomonas aeruginosa 1513-08
[49] = system: Pseudomonas aeruginosa; test: Antimicrobial activity against Pseudomonas aeruginosa 1768-00
[50] = system: Pseudomonas aeruginosa; test: Antimicrobial activity against Pseudomonas aeruginosa 1613-09
[51] = system: Pseudomonas aeruginosa; test: Antimicrobial activity against Pseudomonas aeruginosa 1957-00

C[C@H]1[C@H](NC(=O)/C(=N\OC(C)(C)C(=O)O)c2csc(N)n2)C(=O)N1C(=O)NS(=O)(=O)n1nc(-c2cc(=O)c(O)c[nH]2)n(C)c1=O showed an MIC90 [1] of 0.5 µg/mL (≈ 0.748 µM), an MIC90 [2] of 0.5 µg/mL (≈ 0.748 µM) and an MIC90 [3] of 1 µg/mL (≈ 1.5 µM). It also gave an MIC90 [4] of 0.5 µg/mL (≈ 0.748 µM), an MIC90 [5] of 0.25 µg/mL (≈ 0.374 µM) and an MIC90 [6] of 1 µg/mL (≈ 1.5 µM). It also gave an MIC90 [7] of 0.25 µg/mL (≈ 0.374 µM), an MIC90 [8] of 0.06 µg/mL (≈ 0.0897 µM) and an MIC90 [9] of 0.5 µg/mL (≈ 0.748 µM). The MIC90 [10] was 0.5 µg/mL (≈ 0.748 µM), the MIC90 [11] was 0.25 µg/mL (≈ 0.374 µM) and the MIC90 [12] was 0.25 µg/mL (≈ 0.374 µM). It also gave an MIC90 [13] of 0.25 µg/mL (≈ 0.374 µM), an MIC90 [14] of 0.25 µg/mL (≈ 0.374 µM) and an MIC90 [15] of 0.5 µg/mL (≈ 0.748 µM). It also gave an MIC90 [16] of 8 µg/mL (≈ 12 µM), an MIC90 [17] of 0.125 µg/mL (≈ 0.187 µM) and an MIC90 [18] of 0.5 µg/mL (≈ 0.748 µM). For the same compound, the MIC90 [19] was 0.25 µg/mL (≈ 0.374 µM), the MIC90 [20] was 0.25 µg/mL (≈ 0.374 µM) and the MIC90 [21] was 0.125 µg/mL (≈ 0.187 µM). It also gave an MIC90 [22] of 0.125 µg/mL (≈ 0.187 µM), an MIC90 [23] of 1 µg/mL (≈ 1.5 µM) and an MIC90 [24] of 8 µg/mL (≈ 12 µM). It also gave an MIC90 [25] of 0.125 µg/mL (≈ 0.187 µM), an MIC90 [26] of 0.125 µg/mL (≈ 0.187 µM) and an MIC90 [27] of 0.5 µg/mL (≈ 0.748 µM). It also gave an MIC90 [28] of 0.5 µg/mL (≈ 0.748 µM), an MIC90 [29] of 4 µg/mL (≈ 5.98 µM) and an MIC90 [30] of 1 µg/mL (≈ 1.5 µM). For the same compound, the MIC90 [31] was 0.5 µg/mL (≈ 0.748 µM), the MIC90 [32] was 0.25 µg/mL (≈ 0.374 µM) and the MIC90 [33] was 0.25 µg/mL (≈ 0.374 µM). The MIC90 [34] was 0.25 µg/mL (≈ 0.374 µM), the MIC90 [35] was 1 µg/mL (≈ 1.5 µM) and the MIC90 [36] was 0.5 µg/mL (≈ 0.748 µM). For the same compound, the MIC90 [37] was 0.5 µg/mL (≈ 0.748 µM), the MIC90 [38] was 0.25 µg/mL (≈ 0.374 µM) and the MIC90 [39] was 0.5 µg/mL (≈ 0.748 µM). For the same compound, the MIC90 [40] was 0.125 µg/mL (≈ 0.187 µM), the MIC90 [41] was 1 µg/mL (≈ 1.5 µM) and the MIC90 [42] was 0.5 µg/mL (≈ 0.748 µM). The MIC90 [43] was 0.5 µg/mL (≈ 0.748 µM), the MIC90 [44] was 0.5 µg/mL (≈ 0.748 µM) and the MIC90 [45] was 0.25 µg/mL (≈ 0.374 µM). For the same compound, the MIC90 [46] was 0.03 µg/mL (≈ 0.0449 µM), the MIC90 [47] was 1 µg/mL (≈ 1.5 µM) and the MIC90 [48] was 1 µg/mL (≈ 1.5 µM). For the same compound, the MIC90 [49] was 0.125 µg/mL (≈ 0.187 µM), the MIC90 [50] was 0.125 µg/mL (≈ 0.187 µM) and the MIC90 [51] was 0.125 µg/mL (≈ 0.187 µM).
